Test results reported in ChEMBL document CHEMBL1201862, “PubChem BioAssay data set” (2004).
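Step 1: Grow cells in 96-well plates. Step 2: Expose to compound for 48 hours at 5 concentrations. Step 3: Interpolate endpoints linearly; if unreached, use highest concentration. Abbreviation: GI50, concentration required for 50% inhibition of growth.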 Calls of active or inactive are those of the source. Rule as the data show it: active = GI50 up to about 1.1 µM and inactive = higher.

Assays:
Assay in all cases: DTP human tumour cell line panel, 48 h
OVCAR-3 = test system: OVCAR-3
EKVX = test system: EKVX
SNB-19 = test system: SNB-19
SF-539 = test system: SF-539
SK-MEL-28 = test system: SK-MEL-28
M14 = test system: M14
SF-295 = test system: SF-295
HOP-62 = test system: HOP-62
PC-3 = test system: PC-3
OVCAR-8 = test system: OVCAR-8
UACC-62 = test system: UACC-62
SK-OV-3 = test system: SK-OV-3
KM12 = test system: KM12
MOLT-4 = test system: MOLT-4
SK-MEL-5 = test system: SK-MEL-5
IGROV-1 = test system: IGROV-1
SR = test system: SR
K562 = test system: K562
OVCAR-4 = test system: OVCAR-4
ACHN = test system: ACHN

Measured: GI50

O=P1(c2ccccc2)c2ccccc2CCc2ccccc21
inactive: OVCAR-3 40.8 µM | EKVX 66.4 µM | SNB-19 > 100 µM | SF-539 > 100 µM | SK-MEL-28 > 100 µM | M14 70 µM | SF-295 45.5 µM | HOP-62 > 100 µM | PC-3 50.5 µM | OVCAR-8 > 100 µM | UACC-62 78.7 µM | SK-OV-3 58.2 µM | KM12 56.1 µM | MOLT-4 33.6 µM | SK-MEL-5 44.9 µM | IGROV-1 > 100 µM

CCCCCCCCCCCCCCCCCCCCCCC(=O)N[C@H]1CCc2cc(OC)c(OC)c(OC)c2-c2ccc(SC)c(=O)cc21
inactive: SR 23.5 µM | OVCAR-3 24.2 µM | EKVX 29.1 µM | K562 30.5 µM | SNB-19 39.1 µM | SF-539 17.6 µM | OVCAR-4 > 100 µM | SK-MEL-28 84.5 µM | ACHN 63.8 µM | M14 27.5 µM | SF-295 34.6 µM | HOP-62 16.1 µM | OVCAR-8 26.5 µM | UACC-62 40 µM | SK-OV-3 7.19 µM | KM12 35.2 µM | MOLT-4 27 µM | SK-MEL-5 28.4 µM | IGROV-1 49.1 µM

O=[N+]([O-])c1cc(/C=N\NS(=O)(=O)c2ccc(Cl)cc2)c(O)c([N+](=O)[O-])c1
inactive: SR 21 µM | OVCAR-3 24.4 µM | EKVX > 100 µM | K562 31.1 µM | SNB-19 20.9 µM | SF-539 23.3 µM | OVCAR-4 36.7 µM | SK-MEL-28 93.3 µM | ACHN 49.8 µM | M14 32.4 µM | SF-295 32.9 µM | HOP-62 47.3 µM | OVCAR-8 23 µM | UACC-62 32.4 µM | SK-OV-3 31.3 µM | KM12 27.5 µM | MOLT-4 29.2 µM | SK-MEL-5 27.8 µM | IGROV-1 74.8 µM

CCOC(=O)/C=C(/C(=O)OCC)n1cc(C)c(=O)n(Cc2cnnn2CCCCOC(C)=O)c1=O
inactive: OVCAR-3 16.8 µM | EKVX 21.8 µM | K562 18.7 µM | SNB-19 > 100 µM | SF-539 15.1 µM | OVCAR-4 48.5 µM | SK-MEL-28 25.2 µM | ACHN 11.2 µM | SF-295 > 100 µM | HOP-62 > 100 µM | PC-3 68.5 µM | OVCAR-8 22.8 µM | UACC-62 19 µM | SK-OV-3 > 100 µM | KM12 44.2 µM | MOLT-4 18.2 µM | SK-MEL-5 30 µM | IGROV-1 19 µM

NCP(=O)(O)OCC(=O)O
inactive: SR > 100 µM | OVCAR-3 > 100 µM | EKVX > 100 µM | K562 > 100 µM | SNB-19 > 100 µM | SF-539 > 100 µM | OVCAR-4 > 100 µM | SK-MEL-28 > 100 µM | ACHN > 100 µM | M14 > 100 µM | SF-295 > 100 µM | HOP-62 > 100 µM | OVCAR-8 > 100 µM | UACC-62 > 100 µM | SK-OV-3 > 100 µM | KM12 > 100 µM | MOLT-4 > 100 µM | SK-MEL-5 > 100 µM | IGROV-1 > 100 µM

O=C1C(Cl)=C(Cl)C(=O)N1c1ccccc1Cl
inactive: SR 14.7 µM | OVCAR-3 99.3 µM | EKVX > 100 µM | K562 28.9 µM | SNB-19 > 100 µM | SF-539 > 100 µM | OVCAR-4 > 100 µM | SK-MEL-28 > 100 µM | ACHN > 100 µM | M14 > 75.9 µM | SF-295 > 100 µM | HOP-62 > 100 µM | OVCAR-8 > 100 µM | UACC-62 > 100 µM | SK-OV-3 > 100 µM | KM12 > 100 µM | MOLT-4 30.9 µM | SK-MEL-5 > 100 µM | IGROV-1 > 100 µM

CCOc1ccc(OP2(=O)NC(=O)C=C(C)N2)cc1 (centres undefined)
inactive: SR 48.4 µM | OVCAR-3 > 100 µM | EKVX > 100 µM | K562 > 100 µM | SNB-19 > 100 µM | SF-539 > 100 µM | OVCAR-4 > 100 µM | SK-MEL-28 > 100 µM | ACHN 90.8 µM | M14 > 100 µM | SF-295 > 100 µM | HOP-62 > 100 µM | OVCAR-8 > 100 µM | UACC-62 > 100 µM | SK-OV-3 > 100 µM | KM12 > 100 µM | MOLT-4 > 100 µM | SK-MEL-5 > 100 µM | IGROV-1 > 100 µM

CN1C(c2ccccc2)CC(=NO)CC1c1ccccc1 (centres undefined)
inactive: SR 26.9 µM | OVCAR-3 39.9 µM | EKVX > 100 µM | K562 29.4 µM | SNB-19 > 100 µM | SF-539 41.2 µM | OVCAR-4 40.2 µM | SK-MEL-28 91.2 µM | ACHN 41.4 µM | M14 43 µM | SF-295 41.5 µM | HOP-62 > 100 µM | OVCAR-8 47.4 µM | UACC-62 39.8 µM | SK-OV-3 > 100 µM | KM12 31.6 µM | MOLT-4 19.2 µM | SK-MEL-5 38.2 µM | IGROV-1 > 100 µM

C[C@@]1(CBr)C[C@@](C)(/C=C/Cl)[C@@H](Cl)C[C@H]1Cl
inactive: SR 1.9 µM | OVCAR-3 10.8 µM | EKVX 18.1 µM | K562 4.74 µM | SNB-19 13.5 µM | SF-539 14.6 µM | OVCAR-4 11.6 µM | SK-MEL-28 17.5 µM | ACHN 12.7 µM | M14 15.5 µM | SF-295 13.8 µM | HOP-62 14.2 µM | OVCAR-8 13.9 µM | UACC-62 15.5 µM | SK-OV-3 16 µM | KM12 7.83 µM | MOLT-4 4.03 µM | SK-MEL-5 13.3 µM | IGROV-1 14.8 µM

COc1cc2c(cc1OC)C1(c3ccc(Cl)cc3)ON=C(c3ccccc3)N1CS2 (centres undefined)
inactive: SR 7.05 µM | OVCAR-3 > 100 µM | EKVX > 100 µM | K562 75.3 µM | SNB-19 > 100 µM | SF-539 > 100 µM | OVCAR-4 > 100 µM | SK-MEL-28 > 100 µM | ACHN 91.8 µM | M14 73.8 µM | SF-295 95.3 µM | HOP-62 > 100 µM | UACC-62 36 µM | SK-OV-3 > 100 µM | KM12 > 100 µM | MOLT-4 11 µM | SK-MEL-5 > 100 µM | IGROV-1 38.7 µM

O=C(C[n+]1ccccc1)NNC(=O)/C(=C/c1ccc2c(c1)OCO2)NC(=O)c1ccccc1
inactive: SR 18.2 µM | OVCAR-3 29.9 µM | EKVX > 100 µM | K562 > 77.4 µM | SNB-19 68.9 µM | SF-539 29.4 µM | OVCAR-4 32.1 µM | SK-MEL-28 > 100 µM | ACHN > 100 µM | M14 48 µM | SF-295 > 79.3 µM | HOP-62 44.4 µM | OVCAR-8 30 µM | UACC-62 > 67.9 µM | SK-OV-3 > 100 µM | KM12 35.2 µM | MOLT-4 30.4 µM | SK-MEL-5 32.4 µM | IGROV-1 44.7 µM

O=C(O)CCC(=O)Nc1ccc2ccccc2c1
inactive: OVCAR-3 > 100 µM | EKVX > 100 µM | K562 > 100 µM | SNB-19 > 100 µM | OVCAR-4 > 100 µM | SK-MEL-28 > 100 µM | ACHN > 100 µM | M14 > 100 µM | SF-295 > 100 µM | HOP-62 > 100 µM | PC-3 > 100 µM | OVCAR-8 > 100 µM | UACC-62 > 100 µM | SK-OV-3 > 100 µM | KM12 > 100 µM | MOLT-4 > 100 µM | SK-MEL-5 > 100 µM | IGROV-1 > 100 µM

O=C(NC1CCCCCC1)C1C(=O)N(C2CCCCCC2)C(=O)/C1=N\O (centres undefined)
inactive: SR 23.8 µM | OVCAR-3 17.6 µM | EKVX 36.2 µM | K562 39.1 µM | SNB-19 35.2 µM | SF-539 25.2 µM | OVCAR-4 44.1 µM | SK-MEL-28 30 µM | ACHN 35.2 µM | M14 32.1 µM | SF-295 36.6 µM | HOP-62 18.7 µM | OVCAR-8 38.6 µM | UACC-62 21 µM | SK-OV-3 38.4 µM | KM12 37.1 µM | MOLT-4 21.5 µM | SK-MEL-5 36.1 µM | IGROV-1 50 µM

Cc1nnc(N/N=C2\C(=O)Nc3ccccc32)n1N
inactive: SR > 100 µM | OVCAR-3 > 100 µM | EKVX > 100 µM | K562 29.6 µM | SNB-19 > 100 µM | SF-539 > 100 µM | OVCAR-4 > 100 µM | SK-MEL-28 > 100 µM | ACHN > 100 µM | M14 > 100 µM | SF-295 > 100 µM | HOP-62 > 100 µM | OVCAR-8 > 100 µM | UACC-62 > 100 µM | SK-OV-3 > 100 µM | KM12 > 100 µM | MOLT-4 > 100 µM | SK-MEL-5 > 100 µM | IGROV-1 > 100 µM

CC12CC3CC(C)(C1)CC(N=[N+]=[N-])(C3)C2
inactive: SR > 100 µM | OVCAR-3 > 100 µM | EKVX > 100 µM | K562 > 100 µM | SNB-19 > 100 µM | SF-539 > 100 µM | OVCAR-4 > 100 µM | SK-MEL-28 > 100 µM | ACHN > 100 µM | M14 > 100 µM | SF-295 > 100 µM | HOP-62 > 100 µM | OVCAR-8 > 100 µM | UACC-62 > 100 µM | SK-OV-3 > 100 µM | KM12 > 100 µM | MOLT-4 > 100 µM | SK-MEL-5 > 100 µM | IGROV-1 > 100 µM
